The source of these data is patent US9371570B2, “Mutant calreticulin for the diagnosis of myeloid malignancies” (CeMM—FORSCHUNGSZENTRUM FÜR MOLEKULARE MEDIZIN GmbH, priority 2013, dated 2016).

Each structure is given as a SMILES string.

In this assay the test system is Ba/F3 cells expressing the empty vector (GFP), CALR wild type (CALR wt-GFP) or CALR mutant (CALR del52-GFP). Nature of the assay: Sensitivity of Ba/F3 cells to SAR302503 (CellTiter-Glo cell viability). The note with it: Ba/F3 CALR wild type vs CALR 52 base pair deletion mutant; 48 hours; dilution series, highest concentration 40 μM; 10 ng/ml interleukin-3; listed as JAK2 kinase inhibitor. In kind it is cell-based, murine. The protocol:
FIG. 7: The sensitivity of Ba/F3 cells to SAR302503. Ba/F3 cells expressing the empty vector (GFP), CALR wild type (CALR wt-GFP) or CALR mutant (CALR del52-GFP) were analyzed by defining cell viability after 48 hours in presence of […] SAR302503. For relative viability, relative luminescence units were normalized to the DMSO control. Error bars represent standard error of the mean.
The retrovirus was generated and cells were transduced as described before (Zuber et al, 2013). Briefly, PlatE cells (75% confluent in a 10 cm dish) were transfected with 20 μg of the respective viral vector using the Calcium Phosphate Transfection Kit (Sigma #CAPHOS). The medium was changed after 24 hours and viral supernatant was collected at 36, 40, 44 and 60 hours after transfection. […] The cells were analyzed for transduction efficiency by flow cytometry, 48 hours after the final transduction step. The GFP positive cells were sorted by FACS and the sorting efficiency was analyzed by flow cytometry.
To define the sensitivity to the inhibitor SAR302503 (Sanofi), Ba/F3 cells were plated in 96-well plates at 25000 cells per well in triplicates on a dilution series of SAR302503 (highest concentration 40 μM) and in presence of 10 ng/ml interleukin-3. After 48 hours cell viability was determined by the CellTiter-Glo® Luminescent Cell Viability Assay (Promega).

In the case of `Cc1cnc(Nc2ccc(OCCN3CCCC3)cc2)nc1Nc1cccc(S(=O)(=O)NC(C)(C)C)c1` [SAR302503], the “sensitivity of cells to the JAK2 kinase inhibitor SAR302503 (relative cell viability)” value is “suppressed equally”.
